The values that follow come from publication PMC7316778 (Nature Communications, 2020).

Values joined by “and” are separate entries in the source; they are usually repeats but may differ in a detail not shown here. Equal entries are not always repeated. Where two headings read alike, the source gives them in different places.

In assay [1] the target is DYRK3 (Homo sapiens, UniProt O43781). The assay can be described thus: SelectScreen kinase assay.
Experimental: (§1) Selectivity profiling assays were performed by the Invitrogen SelectScreen™ Services. […] The concentration of ATP was selected to be equal to the KM, unless indicated otherwise.
Assay [2] has as its target T1, SGK (SGK1) (Homo sapiens, UniProt O00141).
T1 sequence (O00141 1-431): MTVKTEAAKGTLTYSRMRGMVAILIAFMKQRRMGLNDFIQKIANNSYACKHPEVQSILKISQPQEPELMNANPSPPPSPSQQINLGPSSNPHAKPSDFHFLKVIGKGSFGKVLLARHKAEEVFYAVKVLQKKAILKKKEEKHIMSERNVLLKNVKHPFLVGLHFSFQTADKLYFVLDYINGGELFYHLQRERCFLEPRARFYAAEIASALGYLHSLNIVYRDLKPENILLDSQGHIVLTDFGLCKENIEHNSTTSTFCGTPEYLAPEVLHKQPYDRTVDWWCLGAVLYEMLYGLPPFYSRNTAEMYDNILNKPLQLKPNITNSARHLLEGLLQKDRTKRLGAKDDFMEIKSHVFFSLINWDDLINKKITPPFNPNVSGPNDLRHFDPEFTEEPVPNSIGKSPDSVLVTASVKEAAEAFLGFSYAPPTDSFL
The assay can be described thus: SelectScreen kinase assay.
Experimental: as §1

The mark [3] stands for this setting: 1 h, 1 μM WEL028, 1 h preincubation.

DYRK3, sequence (O43781 whole entry): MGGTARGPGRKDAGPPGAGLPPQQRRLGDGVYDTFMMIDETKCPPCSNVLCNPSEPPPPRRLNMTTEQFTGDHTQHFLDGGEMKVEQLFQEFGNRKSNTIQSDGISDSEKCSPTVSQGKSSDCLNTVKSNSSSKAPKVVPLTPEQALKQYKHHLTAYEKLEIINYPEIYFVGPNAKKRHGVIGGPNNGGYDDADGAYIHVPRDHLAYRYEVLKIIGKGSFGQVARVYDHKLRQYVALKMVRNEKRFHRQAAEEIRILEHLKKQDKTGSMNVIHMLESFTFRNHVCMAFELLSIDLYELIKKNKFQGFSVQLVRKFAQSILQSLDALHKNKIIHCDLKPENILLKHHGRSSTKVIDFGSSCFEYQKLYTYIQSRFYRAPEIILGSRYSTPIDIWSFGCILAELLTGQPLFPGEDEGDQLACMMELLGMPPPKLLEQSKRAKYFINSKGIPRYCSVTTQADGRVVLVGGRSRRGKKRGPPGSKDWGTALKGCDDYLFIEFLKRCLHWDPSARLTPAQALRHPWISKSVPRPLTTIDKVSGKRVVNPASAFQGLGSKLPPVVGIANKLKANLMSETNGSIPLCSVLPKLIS

As to `C#CCOc1ccc(Nc2ncc(Cl)c(Nc3ccccc3NC(=O)C=C)n2)c(OC)c1` [Compound 6], the inhibition at 1 µM was determined as 2% in assay [1] (setting [3]); 10% in assay [2] (setting [3]); 10% in assay [2] (read-out: Inhibition at 1 µM (%), 1 µM, ZLYTE, ATP Km app). The “Inhibition at 1 µM (%)” value in assay [1] (DYRK3, 1 µM, ZLYTE, ATP Km app, listed as WEL028, 1 µM) was 0% and 4%; in assay [2] (1 µM, ZLYTE, ATP Km app, listed as WEL028, 1 µM), 9%.
